pEC50, pIC50: −log10 of the molar value. Values joined by “and” are separate entries in the source; they are usually repeats but may differ in a detail not shown here. Equal values may be shown once. Read-outs that look alike come from different tables or passages of the source.
Assays:
[1] = test system: rat osteocalcin promoter; assay: OCN (osteocalcin) promoter assay in RG-15 (ROS 17/2.8) cells; format: cell-based; conditions: 48 hr treatment, luciferase
Description: 3. The OCN (Osteocalcin) Promoter Assay
The OCN Promoter Assay is an indicator and marker for osteoporosis. […] Preferred assay results are less than 50 nM.
(3) Materials and Method for The OCN Promoter Assay:
The activation of osteocalcin by VDR ligands was evaluated in a rat osteoblast-like cell line RG-15 (ROS 17/2.8) stably expressing rat osteocalcin promoter fused with luciferase reporter gene. […] Confluent RG-15 cells maintained in DMEM/F-12 medium (3:1) containing 5% FBS, 300 μg/ml G418 and at 37° C. under 5% CO2/95% air atmosphere were trypsinized (0.25% trypsin) and plated into white opaque 96-well cell culture plates (25000 cells/well). After 24 hr, cells (in DMEM/F-12 medium+2% FBS) were treated with various concentrations of compounds, dissolved in DMSO. The final DMSO concentration remained at 0.01% (v/v). After 48 hr treatment, the medium was removed, cells were lysed with 50 μl of lysis buffer (From Luciferase reporter assay system, Roche Diagnostics, Indianapolis, Ind.) and assayed for luciferase activity using the Luciferase Reporter Gene Assay kit from Boehringer Mannheim as per manufacturer's specifications.

[2] = test system: KERtr cells (Human skin keratinocyte); assay: Keratinocyte proliferation assay; format: cell-based; conditions: BrdU incorporation, read-out: Kera. Prolif. IC50
Description: 5. The Keratinocyte Proliferation Assay
This Assay is indicative for the treatment of psoriasis.
(5) The Keratinocyte Proliferation Assay:
KERtr cells (Human skin keratinocyte transformed with a retrovirus vector, obtained from ATCC) were plated in 96-well flat-bottomed plates (3000 cells/well) in 100 μl keratinocyte serum free medium supplemented with bovine pituitary extract in the absence of EGF (Life Technologies, Rockville, Md.) and incubated at 37° C. for two days. The cells were treated with various concentrations of VDR ligands (ten-fold serial dilution from 10,000 nM to 0.1 nM in triplicate), dissolved in 100 μl keratinocyte serum free medium supplemented with bovine pituitary extract in the absence of EGF and incubated at 37° C. for 72 hr. BrdU (5-bromo-2′-deoxyuridine) incorporation was analyzed as a measure of DNA replication (Cell proliferation ELISA kit, Roche Diagnostics, Indianapolis, Ind.) and absorbance was measured at 405 nm. Potency values (IC50) values were determined as the concentration (nM) of compound that elicited a half-maximal response.

[3] = test system: female DBF mice; assay: Mouse hypercalcemia assay; format: in vivo; conditions: orally via gavage for 6 days; serum ionized calcium 6 hours after last dosing
From the text: 4. The Mouse Hypercalcemia Assay
(4) Materials and Method for The Mouse Hypercalcemia Assay: […]

[4] = Homo sapiens, Keratinocyte, 72 h

| SMILES | pEC50 ([1]; Rattus norvegicus, 48 h) | pEC50 [1] | Mouse Hypercal [3] [µg/kg/day] | also measured |
| --- | --- | --- | --- | --- |
| CCC(CC)(c1ccc(OCC(O)C(C)(C)C)c(C)c1)c1ccc(C(=O)OC)c(C)c1 (racemic) [Ex. 1, 3′-[4-(2-hydroxy-3,3-dimethylbutoxy)-3-methylphenyl]-3′-[4-methoxycarbonyl-3-methylphenyl]pentane] | 7.68 | – | – | – |
| CCC(CC)(c1ccc(OC(C)C(O)C(C)(C)C)c(C)c1)c1ccc(C(=O)O)c(C)c1 (racemic) [Ex. 28, 4-{1-Ethyl-1-[4-(2-hydroxy-1,3,3-trimethyl-butoxy)-3-methyl-phenyl]-propyl}-2-methyl-benzoic acid] | 6.97 | 7.08 | – | pIC50 [2, 4]: 6.62 |
| CCC(CC)(c1ccc(C(=O)O)cc1)c1ccc(OCC(O)C(C)(C)C)c(Cl)c1 (racemic) [Ex. 35, 3′-[3-chloro-4-(2-hydroxy-3,3-dimethylbutoxy)phenyl]-3′-[4-carboxyphenyl]pentane] | 7.57 | – | – | pIC50 [2, 4]: 7.40 |
| CCC(CC)(c1ccc(C(=O)O)c(C)c1)c1ccc(OCC(O)C(C)(C)C)c(Cl)c1 (racemic) [Ex. 38, 3′-[3-chloro-4-(2-hydroxy-3,3-dimethylbutoxy)phenyl]-3′-[3-methyl-4-(carboxy)phenyl]pentane] | 7.39 | – | – | – |
| CCC(CC)(c1ccc(OCC(O)C(C)(C)C)c(C)c1)c1ccc(C(=O)O)c(Cl)c1 (racemic) [Ex. 39, 3′-[3-methyl-4-(2-hydroxy-3,3-dimethylbutoxy)phenyl]-3′-(3-chloro-4-carboxyphenyl)pentane] | 7.13 | 7.21 | – | pIC50 [2, 4]: 6.29 |
| CCC(CC)(c1ccc(CCC(O)C(C)(C)C)c(C)c1)c1ccc(C(=O)O)c(C)c1 (racemic) [Ex. 55, 3′-[4-(3-hydroxy-4,4-dimethylpentyl)-3-methylphenyl]-3′-[4-carboxyl-3-methylphenyl]pentane] | 8.22 | – | – | – |
| CCC(CC)(c1ccc(OCC(O)C(C)(C)C)c(C)c1)c1ccc(C(=O)O)c(C)c1 (single isomer, unassigned) [Ex. 3A] | – | 7.82 and 7.74 | 1000 | – |
| CCC(CC)(c1ccc(OCC(O)C(C)(C)C)c(C)c1)c1ccc(C(=O)O)c(C)c1 (single isomer, unassigned) [Ex. 3B] | – | 7.24 and 7.08 | 3000 | – |
| CCC(CC)(c1ccc(OCC(O)C(C)(C)C)c(C)c1)c1ccc(C(=O)OC)c(C)c1 (single isomer, unassigned) [Ex. 4A, 3′-[4-(2-hydroxy-3,3-dimethylbutoxy)-3-methylphenyl]-3′-[4-methoxycarbonyl-3-methylphenyl]pentane] | – | 8.52 | – | – |
| CCC(CC)(c1ccc(OCC(O)C(C)(C)C)c(C)c1)c1ccc(C(=O)OC)c(C)c1 (single isomer, unassigned) [Ex. 4B, 3′-[4-(2-hydroxy-3,3-dimethylbutoxy)-3-methylphenyl]-3′-[4-methoxycarbonyl-3-methylphenyl]pentane] | – | 7.82 | – | – |
| CCC(CC)(c1ccc(OC(C)C(O)C(C)(C)C)c(C)c1)c1ccc(C(=O)OC)c(C)c1 (single isomer, unassigned) [Ex. 10Da, 3′-[4-(2-hydroxy-1,3,3-trimethylbutoxy)-3-methylphenyl]-3′-[4-methoxycarbonyl-3-methylphenyl]pentane] | – | – | – | pIC50 [2, 4]: 6.00 |
| CCC(CC)(c1ccc(OC(C)C(O)C(C)(C)C)c(C)c1)c1ccc(C(=O)O)c(C)c1 (single isomer, unassigned) [Ex. 12] | – | 7.70 and 7.60 | 4000 | – |
| CCC(CC)(c1ccc(OCC(O)C(C)(C)C)c(C)c1)c1ccc(C(=O)Nc2nnn[nH]2)c(C)c1 (single isomer, unassigned) [Ex. 12b, 3′-[4-(2-hydroxy-3,3-dimethylbutoxy)-3-methylphenyl]-3′-[4-(tetrazol-5-ylaminocarbonyl)-3-methylphenyl]pentane] | – | 7.89 and 7.64 | 300 | – |
| CCC(CC)(c1ccc(OCC(O)C(C)(C)C)c(C)c1)c1ccc(C(=O)NCCS(C)(=O)=O)c(C)c1 (single isomer, unassigned) [Ex. 15B, 4-{1-ethyl-1-[4-(2-hydroxy-3,3-dimethylbutoxy)-3-methylphenyl]propyl}-N-(2-methanesulfonylethyl)-2-methylbenzamide] | – | 6.79 | – | – |
| CCC(CC)(c1ccc(OCC(O)C(C)(C)C)c(C)c1)c1ccc(C(=O)Nc2nnn[nH]2)c(C)c1 (single isomer, unassigned) [Ex. 27, 3′-[4-(2-hydroxy-3,3-dimethylbutoxy)-3-methylphenyl]-3′-[4-(tetrazol-5-ylaminocarbonyl)-3-methylphenyl]pentane] | – | 7.89 and 7.64 | 300 | – |
| CCC(CC)(c1ccc(OCC(O)C(C)(C)C)c(Cl)c1)c1ccc(C(=O)O)c(Cl)c1 (single isomer, unassigned) [Ex. 41, 3′-[3-chloro-4-(2-hydroxy-3,3-dimethyl-butoxy)phenyl]-3′-(3-chloro-4-carboxyphenyl)pentane] | – | 6.38 | – | – |
| CCC(CC)(c1ccc(OCC(O)C(C)(C)C)c(Cl)c1)c1ccc(C(=O)O)c(Cl)c1 (single isomer, unassigned) [Ex. 42, 3′-[3-chloro-4-(2-hydroxy-3,3-dimethyl-butoxy)phenyl]-3′-(3-chloro-4-carboxyphenyl)pentane] | – | – | – | pIC50 [2, 4]: 7.30 |
| CCC(CC)(c1ccc(OC[C@@H](O)C(C)(C)C)c(C)c1)c1ccc(C(=O)NCCS(C)(=O)=O)c(C)c1 (stereo in doubt) [Ex. 14, 4-{1-ethyl-1-[4-(2-hydroxy-3,3-dimethylbutoxy)-3-methylphenyl]propyl}-N-(2-methanesulfonylethyl)-2-methylbenzamide] | 6.51 | – | 3000 | – |
| CCC(CC)(c1ccc(OC[C@@H](O)C(C)(C)C)c(C)c1)c1ccc(C(=O)NCC(=O)O)c(C)c1 (stereo in doubt) [Ex. 24, (4-{1-ethyl-1-[4-(2-hydroxy-3,3-dimethylbutoxy)-3-methylphenyl]-propyl}-2-methylbenzoylamino)acetic acid] | 9.70 | – | – | – |
| C=C1/C(=C\C=C2/CCC[C@]3(C)[C@@H]([C@H](C)CCCC(C)(C)O)CC[C@@H]23)C[C@@H](O)C[C@@H]1O [AA, 1α,25-dihydroxyvitamin D3, reference compound] | – | – | 0.06 | – |
| CCC(CC)(c1ccc(OCC(O)CO)c(C)c1)c1ccc(OCC(O)C(C)(C)C)c(C)c1 (stereo not shown) [BB, 3-(4-{1-Ethyl-1-[4-(2-hydroxy-3,3-dimethyl-butoxy)-3-methyl-phenyl]-propyl}-2-methyl-phenoxy)-propane-1,2-diol, reference compound] | – | – | 20 | – |
| Cc1cc(C2(c3ccc(OCC(=O)C(C)(C)C)c(C)c3)CCCCC2)ccc1OCC(=O)C(C)(C)C [CC, 1-(4-{1-[4-(3,3-Dimethyl-2-oxo-butoxy)-3-methyl-phenyl]-cyclohexyl}-2-methyl-phenoxy)-3,3-dimethyl-butan-2-one, reference compound] | < 6.00 | – | – | – |
| CCC(CC)(c1ccc(OCC(=O)C(C)(C)C)c(C)c1)c1ccc(OC[C@H](O)C(C)(C)C)c(C)c1 [EE, reference compound] | 6.47 | – | 1000 | – |
| CCC(CC)(c1ccc(CNCCS(C)(=O)=O)c(C)c1)c1ccc(OCC(=O)C(C)(C)C)c(C)c1 [Ex. 13, 1-[4-(1-ethyl-1-{4-[(2-methanesulfonyl-ethylamino)-methyl]-3-methyl-phenyl}-propyl)-2-methyl-phenoxy]-3,3-dimethyl-butan-2-one] | 7.05 | 6.78 | 3000 | – |
| CCC(CC)(c1ccc(OCC(=O)C(C)(C)C)c(C)c1)c1ccc(C(=O)NCCS(C)(=O)=O)c(C)c1 [Ex. 16, 4-{1-[4-(3,3-dimethyl-2-oxobutoxy)-3-methylphenyl]-1-ethylpropyl}-N-(2-methanesulfonylethyl)-2-methylbenzamide] | 7.46 | – | >5000 | – |
| CCC(CC)(c1ccc(OC(C)C(O)C(C)(C)C)c(C)c1)c1ccc(C(=O)N[C@@H](C)C(=O)O)c(C)c1 (stereo partly shown) [Ex. 49, (L)-2-(4-{1-Ethyl-1-[4-(2-hydroxy-1,3,3-trimethyl-butoxy)-3-methyl-phenyl]-propyl}-2-methyl-benzoylamino)-propionic acid] | – | – | – | pIC50 ([2]; 72 hr): 6.00 |
| CCC(CC)(c1ccc(CCC(=O)C(C)(C)C)c(C)c1)c1ccc(C(=O)O)c(C)c1 [Ex. 54, 3′-[4-(3-oxo-4,4-dimethylpentyl)-3-methylphenyl]-3′-[4-carboxyl-3-methylphenyl]pentane] | 6.92 | – | >3000 | – |
